PubChem BioAssay AID2060506 (Molecular Pharmacology Branch, DTP, NCI, 2025)

Tested on: 598228-144-R-J1-PDC complex spheroid viability
Assay: Anticancer human tumor 598228-144-R-J1-PDC patient-derived serous endometrial adenocarcinoma cell line growth inhibition [GQUAD]
Conditions: for IC50: curve of first compound; for viability, T/C: stronger effect = lower value
Outline: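 Multi-cell-type spheroids of tumor cells with HUVEC and mesenchymal stem cells, treated with drug combinations. Concentrations descend in half-log steps from near clinical Cmax, or from 10 microM where Cmax is unknown; viability read-out.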

[1] = second compound 0.0316 µM, first compound 0.0316 µM
[2] = second compound 0.0316 µM, first compound 0.1 µM
[3] = second compound 0.0316 µM, first compound 0.316 µM
[4] = second compound 0.0316 µM, first compound 1 µM
[5] = second compound 0.0316 µM, first compound 3.16 µM
[6] = second compound 0.0316 µM, first compound 10 µM
[7] = second compound 0.1 µM, first compound 0.0316 µM
[8] = second compound 0.1 µM, first compound 0.1 µM
[9] = second compound 0.1 µM, first compound 0.316 µM
[10] = second compound 0.1 µM, first compound 1 µM
[11] = second compound 0.1 µM, first compound 3.16 µM
[12] = second compound 0.1 µM, first compound 10 µM
[13] = second compound 0.316 µM, first compound 0.0316 µM
[14] = second compound 0.316 µM, first compound 0.1 µM
[15] = second compound 0.316 µM, first compound 0.316 µM
[16] = second compound 0.316 µM, first compound 1 µM
[17] = second compound 0.316 µM, first compound 3.16 µM
[18] = second compound 0.316 µM, first compound 10 µM
[19] = second compound 1 µM, first compound 0.0316 µM
[20] = second compound 1 µM, first compound 0.1 µM
[21] = second compound 1 µM, first compound 0.316 µM
[22] = second compound 1 µM, first compound 1 µM
[23] = second compound 1 µM, first compound 3.16 µM
[24] = second compound 1 µM, first compound 10 µM
[25] = second compound 3.16 µM, first compound 0.0316 µM
[26] = second compound 3.16 µM, first compound 0.1 µM
[27] = second compound 3.16 µM, first compound 0.316 µM
[28] = second compound 3.16 µM, first compound 1 µM
[29] = second compound 3.16 µM, first compound 3.16 µM
[30] = second compound 3.16 µM, first compound 10 µM
[31] = second compound 10 µM, first compound 0.0316 µM
[32] = second compound 10 µM, first compound 0.1 µM
[33] = second compound 10 µM, first compound 0.316 µM
[34] = second compound 10 µM, first compound 1 µM
[35] = second compound 10 µM, first compound 3.16 µM
[36] = second compound 10 µM, first compound 10 µM
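Note: spheroids exposed to the agents for one week before reading.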
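Throughout, for viability, T/C: percent of vehicle DMSO control viability so 100% = untreated growth.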

Question: `COc1ccc([C@@H](O)c2cc(-c3ncnc4cc(N5CCOCC5)ccc34)c(F)cc2Cl)nn1` + Cc1[nH]c2ccc(F)cc2c1-c1nc2c3cccnc3c3ncccc3c2[nH]1 was tested. Which IC50 (second compound 0.0316 µM) did it give?
Answer: Its IC50 is 3140 nM.

Question: And the IC50 (second compound 0.1 µM)?
Answer: Its IC50 is 1220 nM.

Question: And the IC50 (second compound 0.316 µM)?
Answer: The IC50 was 1290 nM.

Question: And the IC50 (second compound 1 µM)?
Answer: The IC50 was 222 nM.

Question: What about the IC50 (second compound 3.16 µM) of the same molecule?
Answer: The IC50 was less than 31.6 nM.

Question: What about the IC50 (second compound 10 µM) of the same molecule?
Answer: The IC50 was 112 nM.

Question: What about the viability, T/C [1] of the same molecule?
Answer: The viability, T/C was 96.8%.

Question: What about the viability, T/C [2] of the same molecule?
Answer: The viability, T/C was 114%.

Question: What about the viability, T/C [3] of the same molecule?
Answer: Its viability, T/C is 87.8%.

Question: What about the viability, T/C [4] of the same molecule?
Answer: Its viability, T/C is 76.7%.

Question: What about the viability, T/C [5] of the same molecule?
Answer: Its viability, T/C is 50.4%.

Question: And the viability, T/C [6]?
Answer: Its viability, T/C is 29.1%.

Question: And the viability, T/C [7]?
Answer: Its viability, T/C is 112%.

Question: What about the viability, T/C [8] of the same molecule?
Answer: Its viability, T/C is 96%.

Question: And the viability, T/C [9]?
Answer: The viability, T/C was 62.6%.

Question: And the viability, T/C [10]?
Answer: The viability, T/C was 59.5%.

Question: And the viability, T/C [11]?
Answer: The viability, T/C was 35%.

Question: What about the viability, T/C [12] of the same molecule?
Answer: The viability, T/C was 26%.

Question: And the viability, T/C [13]?
Answer: Its viability, T/C is 82.2%.

Question: What about the viability, T/C [14] of the same molecule?
Answer: Its viability, T/C is 71.5%.

Question: And the viability, T/C [15]?
Answer: The viability, T/C was 72.8%.

Question: And the viability, T/C [16]?
Answer: The viability, T/C was 50.5%.

Question: What about the viability, T/C [17] of the same molecule?
Answer: The viability, T/C was 40.8%.

Question: What about the viability, T/C [18] of the same molecule?
Answer: The viability, T/C was 32.4%.

Question: What about the viability, T/C [19] of the same molecule?
Answer: The viability, T/C was 64.2%.

Question: What about the viability, T/C [20] of the same molecule?
Answer: The viability, T/C was 67.4%.

Question: And the viability, T/C [21]?
Answer: The viability, T/C was 37.4%.

Question: What about the viability, T/C [22] of the same molecule?
Answer: Its viability, T/C is 36.9%.

Question: And the viability, T/C [23]?
Answer: The viability, T/C was 27.4%.

Question: What about the viability, T/C [24] of the same molecule?
Answer: Its viability, T/C is 18.8%.

Question: What about the viability, T/C [25] of the same molecule?
Answer: The viability, T/C was 48.3%.

Question: And the viability, T/C [26]?
Answer: Its viability, T/C is 44.9%.

Question: And the viability, T/C [27]?
Answer: Its viability, T/C is 34.1%.

Question: And the viability, T/C [28]?
Answer: The viability, T/C was 21.1%.

Question: What about the viability, T/C [29] of the same molecule?
Answer: The viability, T/C was 18.9%.

Question: What about the viability, T/C [30] of the same molecule?
Answer: The viability, T/C was 15.2%.

Question: What about the viability, T/C [31] of the same molecule?
Answer: Its viability, T/C is 61.5%.

Question: And the viability, T/C [32]?
Answer: The viability, T/C was 49.6%.

Question: What about the viability, T/C [33] of the same molecule?
Answer: The viability, T/C was 43.9%.

Question: What about the viability, T/C [34] of the same molecule?
Answer: The viability, T/C was 31.1%.

Question: What about the viability, T/C [35] of the same molecule?
Answer: Its viability, T/C is 25.6%.

Question: And the viability, T/C [36]?
Answer: The viability, T/C was 22.5%.

Question: For `C=CCn1c(=O)c2cnc(Nc3ccc(N4CCN(C)CC4)cc3)nc2n1-c1cccc(C(C)(C)O)n1` + CN(C)c1ccc(Nc2c3ccc(NC(=O)CCN4CCCC4)cc3nc3cc(NC(=O)CCN4CCCC4)ccc23)cc1, which IC50 (second compound 0.0316 µM) is on record?
Answer: Its IC50 is 913 nM.

Question: What about the IC50 (second compound 0.1 µM) of the same molecule?
Answer: Its IC50 is 1410 nM.

Question: And the IC50 (second compound 0.316 µM)?
Answer: The IC50 was greater than 10000 nM.

Question: And the IC50 (second compound 1 µM)?
Answer: Its IC50 is 2290 nM.

Question: And the IC50 (second compound 3.16 µM)?
Answer: Its IC50 is 611 nM.

Question: What about the IC50 (second compound 10 µM) of the same molecule?
Answer: The IC50 was 233 nM.

Question: What about the viability, T/C [1] of the same molecule?
Answer: Its viability, T/C is 85.4%.

Question: What about the viability, T/C [2] of the same molecule?
Answer: Its viability, T/C is 99.5%.

Question: What about the viability, T/C [3] of the same molecule?
Answer: The viability, T/C was 65%.

Question: What about the viability, T/C [4] of the same molecule?
Answer: Its viability, T/C is 44.2%.

Question: What about the viability, T/C [5] of the same molecule?
Answer: The viability, T/C was 53.7%.

Question: What about the viability, T/C [6] of the same molecule?
Answer: The viability, T/C was 48.2%.

Question: What about the viability, T/C [7] of the same molecule?
Answer: The viability, T/C was 109%.

Question: And the viability, T/C [8]?
Answer: Its viability, T/C is 97%.

Question: What about the viability, T/C [9] of the same molecule?
Answer: The viability, T/C was 74.4%.

Question: What about the viability, T/C [10] of the same molecule?
Answer: Its viability, T/C is 47%.

Question: What about the viability, T/C [11] of the same molecule?
Answer: The viability, T/C was 50.9%.

Question: What about the viability, T/C [12] of the same molecule?
Answer: Its viability, T/C is 45.3%.

Question: What about the viability, T/C [13] of the same molecule?
Answer: Its viability, T/C is 107%.

Question: What about the viability, T/C [14] of the same molecule?
Answer: The viability, T/C was 83.6%.

Question: And the viability, T/C [15]?
Answer: Its viability, T/C is 54%.

Question: And the viability, T/C [16]?
Answer: Its viability, T/C is 52.5%.

Question: What about the viability, T/C [17] of the same molecule?
Answer: Its viability, T/C is 51.7%.

Question: What about the viability, T/C [18] of the same molecule?
Answer: Its viability, T/C is 52%.

Question: What about the viability, T/C [19] of the same molecule?
Answer: The viability, T/C was 103%.

Question: What about the viability, T/C [20] of the same molecule?
Answer: Its viability, T/C is 79.3%.

Question: And the viability, T/C [21]?
Answer: The viability, T/C was 67.9%.

Question: And the viability, T/C [22]?
Answer: Its viability, T/C is 50.8%.

Question: What about the viability, T/C [23] of the same molecule?
Answer: The viability, T/C was 47.6%.

Question: What about the viability, T/C [24] of the same molecule?
Answer: The viability, T/C was 47.7%.

Question: What about the viability, T/C [25] of the same molecule?
Answer: The viability, T/C was 131%.

Question: And the viability, T/C [26]?
Answer: Its viability, T/C is 88.3%.

Question: And the viability, T/C [27]?
Answer: Its viability, T/C is 63.3%.

Question: What about the viability, T/C [28] of the same molecule?
Answer: Its viability, T/C is 32.1%.

Question: And the viability, T/C [29]?
Answer: The viability, T/C was 46.1%.

Question: What about the viability, T/C [30] of the same molecule?
Answer: The viability, T/C was 21.9%.

Question: And the viability, T/C [31]?
Answer: The viability, T/C was 88.6%.

Question: And the viability, T/C [32]?
Answer: The viability, T/C was 72.8%.

Question: And the viability, T/C [33]?
Answer: Its viability, T/C is 39.8%.

Question: And the viability, T/C [34]?
Answer: Its viability, T/C is 21.7%.

Question: What about the viability, T/C [35] of the same molecule?
Answer: The viability, T/C was 8.8%.

Question: And the viability, T/C [36]?
Answer: Its viability, T/C is 4.75%.

Question: What does the source list for `Nc1ccn(C2OC(CO)C(O)C2(F)F)c(=O)n1` (stereo unspecified) + Cc1cnc(CNC(=O)c2c(=O)c3ccc(N4CCCN(C)CC4)nc3n3c2sc2ccccc23)cn1?
Answer: IC50 (second compound 0.0316 µM): 71.2 nM; IC50 (second compound 0.1 µM): 52.6 nM; IC50 (second compound 0.316 µM): 68.4 nM; IC50 (second compound 1 µM): < 31.6 nM; IC50 (second compound 3.16 µM): < 31.6 nM; IC50 (second compound 10 µM): < 31.6 nM; viability, T/C [1]: 65.9%; viability, T/C [2]: 42.8%; viability, T/C [3]: 41.7%; viability, T/C [4]: 42.5%; viability, T/C [5]: 43.6%; viability, T/C [6]: 44.6%; viability, T/C [7]: 58.7%; viability, T/C [8]: 38.4%; viability, T/C [9]: 45.7%; viability, T/C [10]: 46.6%; viability, T/C [11]: 40%; viability, T/C [12]: 39%; viability, T/C [13]: 63.5%; viability, T/C [14]: 43.8%; viability, T/C [15]: 38.2%; viability, T/C [16]: 44.9%; viability, T/C [17]: 44.8%; viability, T/C [18]: 39.1%; viability, T/C [19]: 58.3%; viability, T/C [20]: 41.6%; viability, T/C [21]: 47.5%; viability, T/C [22]: 39.7%; viability, T/C [23]: 54.7%; viability, T/C [24]: 46.8%; viability, T/C [25]: 60.2%; viability, T/C [26]: 43.2%; viability, T/C [27]: 36.4%; viability, T/C [28]: 26.4%; viability, T/C [29]: 50.5%; viability, T/C [30]: 37%; viability, T/C [31]: 48.5%; viability, T/C [32]: 27.7%; viability, T/C [33]: 23.3%; viability, T/C [34]: 30.2%; viability, T/C [35]: 38.8%; viability, T/C [36]: 18.6%
